Test results as given in patent US10967047B2, “Mitochondrial antiviral-signaling (MAVS) polypeptides and detection and use thereof” (University of Vermont and State Agricultural College, priority 2016, dated 2021).

Assays:
MEFs [1] = test: Mitochondrial transmembrane potential (ΔΨm) by FACS using TMRE in MEFs; type: cell-based, mouse
Experimental: (§1) ROS generation was measured using oxidized, green-fluorescent dihydrocalcein acetoxymethylester (DHC-AM) (Life Technologies) and flow cytometry. Single-cell suspensions of MEFs were prepared and ROS was assessed with 5 μM DHC-AM staining in culture medium for 30 minutes (A. Rohnstock et al., (2007) Toxicol in Vitro 21, 1552-1562). 25 nM of cationic cell permeant dye tetramethylrhodamine ethylester (TMRE; Life Technologies) (R. C. Scaduto, Jr. et al., (1999), Biophysical journal 76, 469-477) were used to measure ΔΨm. Additionally, MitoSox Red and MitoTracker Deep Red (Life Technologies) were used to measure mitochondrial ROS and mitochondrial mass, respectively. Flow cytometry was carried out on an LSRII (BD Biosciences), and FlowJo software (Tree Star) was used for analysis.

MEFs [2] = test: ROS generation by FACS using DHC in MEFs; type: cell-based, mouse
Experimental: as §1

MEFs [3] = test: Oxygen consumption rate (OCR), Seahorse XF-24 extracellular flux analyzer, MEFs; type: cell-based, mouse; conditions: MAVS-WT MEFs (FIG. 1I, J)
Experimental: Real-time analysis of OCR and ECAR was performed with an XF-24 Extracellular Flux Analyzer (Seahorse Bioscience). Metabolic profiles were measured under basal conditions in non-buffered DMEM (Sigma) containing 25 mM glucose, 2 mM L glutamine, and 1 mM sodium pyruvate, in response to 1 μM oligomycin, 0.5 μM FCCP, and 1 μM rotenone/1 μM antimycin A (M. B. de Moura et al., (2014) Methods in molecular biology 1105, 589-602). Total ATP was measured with the ATP Lite Kit (Perkin Elmer), and the ATP/ADP ratio was determined using the bioluminescence ADP/ATP Ratio Assay Kit from Sigma.

Drp1 = test: Phosphorylated Drp1 (Drp1 616p) at purified mitochondria, densitometry normalized to Cox IV; type: cell-based; conditions: 5′-ppp-RNA 1 μg/ml or GOx (FIG. 14A-B)
Experimental: To activate MAVS commercially available 5′-ppp-RNA was used at a concentration of 1 μg/ml, which activates RIG-I helicase. As an alternative GOx was used as previously described [Szeto, H. H., Br J Pharmacol, 2014. 171(8): p. 2029-50]. Mitochondria were purified by anti-Tom22 magnetic beads as previously described [Perl, A., et al., Int Rev Immunol, 2004. 23(3-4): p. 293-313]. Changes in the level of Drp1^616p at mitochondria were determined by densitometry, which was normalized to the level of Cox IV (FIG. 14A-B).

MAVS [4] = test: MAVS expression and oligomerization in the mitochondrial fraction of BMDCs treated with free dye; type: cell-based, mouse; conditions: increasing concentrations of free Alx488 dye (FIG. 7G)
MEFs [5] = test: IFN-I and IL-6 cytokine secretion by ELISA in MEF culture supernatants; type: cell-based, mouse; conditions: MAVS-WT MEFs
Experimental: ELISA was used to measure cytokine concentration in supernatant from cultured MEFs and BMDCs, and in sera of SLE patients and healthy control subjects. For assays, samples were centrifuged and IFN-β and IL-6 levels were measured in triplicate using murine or human ELISA kits according to the manufacturer's instructions. (PBL Biosciences). The fold change in IFN-I or IL-6 cells was calculated by directly comparing mock versus virus or chemical inducer of ROS.

MAVS [6] = test: MAVS oligomerization in MEFs (semi-denaturing gel electrophoresis, immunoblot, densitometry); type: cell-based, mouse
Experimental: 5′ triphosphate double-stranded RNA (5′-ppp-dsRNA), a synthetic ligand for RIG-I, was purchased from InVivoGen and used at a concentration of 1 μg/mL. Mitochondria-targeted antioxidant MitoQ and the mitochondria-targeted superoxide generator MitoPQ, were gifts of M. Murphy (G. F. Kelso et al., (2001) The Journal of biological chemistry 276, 4588-4596). The control reagent TPP was purchased from Sigma. Reagents were added to cells at concentrations as indicated. GOx was purchased from Sigma and added to cultured cells at a final concentration of 0.1 U/mL. Iodoacetamide was from Thermo Fisher, and used at a final concentration of 100 μM.
Cultured MEFs or human PBMCs were lysed in a sample buffer containing 2% SDS and insoluble cell fragments were removed by centrifugation. Plasma samples derived from SLE patients were collected and stored at −20° C. until gel electrophoresis. BCA protein assay (Thermo Scientific) was used to determine protein concentrations in all samples were resolved with SDS-PAGE under denaturing conditions. Gels were transferred to PVDF membranes using a Trans-Blot Turbo Transfer System (BioRad).
(§2) SDD-AGE was performed according to a published protocol with minor modifications (Alberti et al., (2009) Cell 137, 146-158). In brief, mitochondria were resuspended in sample buffer (0.5×TBE, 10% glycerol, 2% SDS, and 0.0025% bromophenol blue) and loaded onto a vertical 1.5% agarose gel. After electrophoresis in the running buffer (1×TBE and 0.1% SDS) for 35 min with a constant voltage of 75 V at 4° C., proteins were transferred to PVDF membranes using a Trans-Blot Turbo Transfer System (BioRad) for immunoblotting.
PVDF membranes were blocked in 5% solution of nonfat powdered milk in Tris-buffered saline. Antibodies used were specific for MAVS and Actin (Santa Cruz); RIPK1 and TRAF2 (BD Biosciences); TANK, TRADD, RIG-I, and GAPDH (Cell Signaling); MDAS and COX4 (Abcam), Alexa 488 (Life Technologies), and IRF3 (Thermo Fisher), respectively. Immunoreactive proteins were visualized using HRP-labeled conjugates (Jackson Immuno Research) and developed using Clarity Western ECL substrate (Biorad). Chemiluminescence was detected and recorded using a Biorad Chemidoc instrument. Densitometric measurements were performed in Image Lab image acquisition and analysis software (Biorad).

MEFs [7] = test: Cell death by FACS using live-dead stain; type: cell-based, mouse; conditions: MitoPQ at the doses used (1 to 10 nM) (FIG. 2I)
MAVS [8] = test: MAVS oligomerization in human PBMC and plasma (semi-denaturing agarose gel electrophoresis); type: cell-based
Experimental: MAVS-deficient and matching WT MEFs, gift of Z. J. Chen (Z. J. Chen et al. (2005) Cell 122, 669-682), were maintained in Dulbecco's modified Eagle's medium (DMEM) (Hyclone), supplemented with 10% heat-inactivated fetal calf serum (FCS) (Hyclone), 100 mM L-glutamine (Cellgro Mediatech), and 10,000 units/mL penicillin/10 mg/mL streptomycin sulfate (Life Technologies). C57BL6 or B6; 129-Mavstm1Zjc/J mice (The Jackson Laboratory, Bar Harbor, Me.) were maintained at the University of Vermont under a protocol approved by the Institutional Animal Care and Use Committee. Murine BMDCs were prepared as described by Inaba et al. (K. Inaba et al., (1992) Journal of Experimental Medicine 176, 1693-1702). In brief, cells derived from femur bone marrow were cultured at a density of 5×10^5/mL in 10-cm plates in RPMI 1640 (HyClone), supplemented with 5% heat-inactivated FCS, 100 mmol L-glutamine, 100 mmol sodium pyruvate, 10,000 units/mL penicillin/10 mg/mL streptomycin sulfate, 5×10^−5 mol 2-mercaptoethanol (Sigma, St. Louis, Mo.), and 10 μg/mL GM-CSF (Life Technologies). Human subjects were enrolled under a protocol approved by the University of Vermont Institutional Review Board. Samples from 17 SLE patients fulfilling the American College of Rheumatology diagnostic criteria were studied (E. M. Tan et al., (1982) Arthritis and Rheumatism 25, 1271-1277). 16 out of 17 patients were female, and the age of study participants was 47±3. The disease activity was assessed by the SLE disease activity index (SLEDAI) scores, ranging from 0 to 10 (C. Bombardier et al., (1992) Arthritis and Rheumatism 35, 630-640). Upon informed consent, primary human PBMCs were obtained from heparinized whole-blood samples from SLE patients. Control PBMCs were generated from age-, sex-, and ethnicity-matched healthy subjects. PBMCs were isolated using standard Ficoll gradient centrifugation as previously described (R. Mallone et al., (2011) Clin. and Exp. Immunol. 163, 33-49). Cells were either used immediately to prepare lysates for immunoblotting or cultured at a density of 5×10^5/mL in a 12-well culture plate with RPMI 1640 (HyClone), supplemented with 5% heat-inactivated FCS, 100 mmol L-glutamine, 100 mmol sodium pyruvate, and 10,000 units/mL penicillin/10 mg/mL streptomycin sulfate. Enriched monocytes from PBMCs were used to prepare hDCs using negative magnetic bead selection (Miltenyi), and were subsequently cultivated for 6 d in 10 μg/mL GM-CSF and 500 U/mL IL-4. All cells were maintained in a humidified chamber at 37° C. and 5% CO2.
as §2
PVDF membranes were blocked in 5% solution of nonfat powdered milk in Tris-buffered saline. Antibodies used were specific for MAVS and Actin (Santa Cruz); RIPK1 and TRAF2 (BD Biosciences); TANK, TRADD, RIG-I, and GAPDH (Cell Signaling); MDAS and COX4 (Abcam), Alexa 488 (Life Technologies), and IRF3 (Thermo Fisher), respectively. […] Chemiluminescence was detected and recorded using a Biorad Chemidoc instrument. […]

[9] = Total thiol concentration of PBMC and plasma homogenates; design: species or system human
MAVS oligomers = target: T1, MAVS oligomers (Homo sapiens, UniProt Q7Z434); test: Membrane lipid-strip blot: interaction of lipids with MAVS oligomers isolated from SLE patients; type: binding; conditions: lipid strips exposed to 1 μg/ml MAVS oligomer from SLE patients (FIG. 15B)
T1 construct: The strips were exposed to 1 μg/ml of MAVS oligomer isolated from SLE patients; from tissue; host or cells: SLE patient material, immunoprecipitated with anti-MAVS antibody on protein G magnetic beads
Experimental: To assess MAVS oligomer interaction a plate coated with anti-phospholipid antibody was prepared and was later was saturated with purified CL. The same plate was exposed to purified and Alx488 labeled MAVS oligomers from mock or GOx treated healthy controls, or from SLE patients as previously published [Szeto, H. H., Br J Pharmacol, 2014. 171(8): p. 2029-50]. Following washing, fluorescence of captured MAVS oligomers was measured. As a control we used recombinant, purified and Alx488 labeled MAVS monomers. Results are shown in FIG. 15A with data shown as mean±SEM, with results representative of two experiments. […] Tests were performed on membrane lipid-strips (Echelon Biosciences). The strips were exposed to 1 μg/ml of MAVS oligomer isolated from SLE patients. The strips were washed with mild detergent and treated with phospholipase A2 (PLA2).

T1 sequence (Q7Z434 whole entry): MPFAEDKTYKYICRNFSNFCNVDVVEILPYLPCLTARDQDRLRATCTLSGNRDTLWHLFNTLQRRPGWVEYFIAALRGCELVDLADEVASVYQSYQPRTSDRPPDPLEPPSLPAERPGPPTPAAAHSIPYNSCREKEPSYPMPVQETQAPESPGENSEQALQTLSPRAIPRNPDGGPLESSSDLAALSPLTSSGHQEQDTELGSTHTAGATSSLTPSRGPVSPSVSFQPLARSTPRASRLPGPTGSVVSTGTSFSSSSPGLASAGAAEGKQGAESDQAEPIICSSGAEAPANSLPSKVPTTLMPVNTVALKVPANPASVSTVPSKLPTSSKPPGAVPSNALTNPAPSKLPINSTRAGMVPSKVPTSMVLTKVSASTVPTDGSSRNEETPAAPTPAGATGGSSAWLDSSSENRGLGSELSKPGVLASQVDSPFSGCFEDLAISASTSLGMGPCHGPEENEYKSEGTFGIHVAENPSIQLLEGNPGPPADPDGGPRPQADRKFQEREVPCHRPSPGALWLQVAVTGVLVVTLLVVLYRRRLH

## 5′ triphosphate double-stranded RNA [5′-ppp-RNA]
MEFs [1]; MAVS-WT MEFs, not observed in MAVS-KO (FIG. 1B, 2D)
  ΔΨm induced by the substance: increased
MEFs [2]; MAVS-WT MEFs, initial 12 h, 1 μg 5′-ppp-RNA (FIG. 1A)
  ROS after transfection: increased
MEFs [3]
  basal OCR versus mock-treated cells: significantly lower basal OCR
Drp1
  level of phosphorylated Drp1 at mitochondria after MAVS activation: lower levels of phosphorylated Drp1 at mitochondria

## N=c1ccc2c(-c3ccc(C(=O)O)cc3C(=O)O)c3ccc(N)c(S(=O)(=O)O)c3oc-2c1S(=O)(=O)O [Alx488, Alexa Fluor 488]
MAVS [4]
  MAVS expression or oligomerization with free fluorophore: did not lead to increased MAVS expression or oligomerization

## C[n+]1ccc(-c2cc[n+](CCCCCCCCCC[P+](c3ccccc3)(c3ccccc3)c3ccccc3)cc2)cc1.[I-].[I-].[I-] [MitoPQ, MitoParaquat]
MEFs [2]; MEFs, MitoPQ 1 to 10 nM (FIG. 2G)
  superoxide within mitochondria / ROS: increased amount of superoxide within mitochondria
MEFs [5]; not observed in MAVS-KO (FIG. 2E, 2J)
  IFN-I secretion induced by the substance: significant increase
MEFs [5]; not observed in MAVS-KO (FIG. 2F, 2K)
  IL-6 secretion induced by the substance: significant increase
MAVS [6]; MEFs, substance alone (MitoPQ 1 to 10 nM, FIG. 2H; GOx, FIG. 2A)
  induction of MAVS oligomerization without viral infection: MAVS oligomerization
MEFs [7]
  cell death: without causing significant cell death

## CCCCCCCCCC[P+](c1ccccc1)(c1ccccc1)c1ccccc1 [dTPP]
MAVS [6]; MEFs pretreated (100 μM) before GOx or SINV (FIG. 3A)
  MAVS oligomerization after pretreatment: did not demonstrate reversal of MAVS oligomerization

## NC(=O)CI [iodoacetamide]
MAVS [8]; cells homogenized in buffer with 100 μM iodoacetamide after GOx or SINV (FIG. 9)
  MAVS oligomers with thiol blocking during homogenization: did not result in a decrease in MAVS oligomers
MAVS [8]; iodoacetamide added to SLE PBMC and plasma samples (FIG. 9)
  detection of MAVS oligomers in SLE cells or plasma with thiol blocking: did not decrease the detection of MAVS oligomers
[9]; PBMC homogenates (FIG. 9)
  reduction of total thiol concentration, PBMCs: 80%
[9]; plasma homogenates (FIG. 9)
  reduction of total thiol concentration, plasma: 94%

## OCCS [β-Me, β-mercaptoethanol]
MEFs [1]; media supplemented with β-Me, GOx (FIG. 2D)
  mitochondrial hyperpolarization in GOx-treated cells: prevented mitochondrial hyperpolarization
MAVS [8]; healthy-donor PBMCs pretreated with MitoQ or grown in presence of β-Me, then GOx (FIG. 4A)
  GOx-induced MAVS oligomerization in PBMCs after pretreatment: MAVS oligomerization did not occur
MAVS [6]; cell media supplemented with β-Me (FIG. 2A)
  reversal of GOx-induced MAVS oligomerization: reversible
MAVS [6]; cell media supplemented with β-Me, SINV infection (FIG. 2A)
  reversal of SINV-induced MAVS oligomerization: only a portion of the MAVS oligomers were reducible

## cardiolipin [CL]
MAVS oligomers
  interaction with MAVS oligomers: significant interaction
